According to patent US10844027B2, “Carboxylic diarylthiazepineamines as mu-opioid receptor agonists” (THE TRUSTEES OF COLUMBIA UNIVERSITY IN THE CITY OF NEW YORK, priority 2015, dated 2020):
Where a name gives a salt, the structure may show the parent alone.

Columns and labels:
[1] = target: T1, human mu-opioid receptor (MOR) (Homo sapiens, UniProt P35372); assay: BRET assay measuring G protein activation, agonist activity at human MOR; assay type: cell-based
T1 construct: expressed in transfected cells; host or cells: HEK-293T
T1 sequence (P35372 whole entry): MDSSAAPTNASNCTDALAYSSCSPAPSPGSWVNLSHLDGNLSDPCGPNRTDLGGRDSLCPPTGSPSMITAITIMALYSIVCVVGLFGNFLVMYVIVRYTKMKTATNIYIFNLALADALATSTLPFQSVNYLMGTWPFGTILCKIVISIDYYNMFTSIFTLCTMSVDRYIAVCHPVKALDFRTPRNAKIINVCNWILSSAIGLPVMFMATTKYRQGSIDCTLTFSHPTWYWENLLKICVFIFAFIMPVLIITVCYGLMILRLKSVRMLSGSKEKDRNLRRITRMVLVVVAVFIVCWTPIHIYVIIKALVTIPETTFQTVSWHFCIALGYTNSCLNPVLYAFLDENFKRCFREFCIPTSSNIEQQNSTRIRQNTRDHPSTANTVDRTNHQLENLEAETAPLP
Procedure: After 24 hours the media was changed, and the experiment was performed 24 hours later (48 hours after transfection).
Transfected cells were dissociated and re-suspended in phosphate-buffered saline (PBS). […] The microplate was centrifuged and the cells were re-suspended in PBS. Then 5 μM of the luciferase substrate coelenterazine H was added to each well for 5 minutes. Following coelenterazine H addition, ligands were added and the BRET signal was measured at 5 minutes on a PHERAstar FS plate reader. Quantification of the BRET signal required calculating the ratio of the light emitted by the energy acceptor, mVenus (510-540 nm), over the light emitted by the energy donor, RLuc8 (485 nm). […] Dose response curves were fit using a three-parameter logistics equation in GraphPad Prism 6.

[2] = target: T2, human delta-opioid receptor (DOR) (Homo sapiens, UniProt P41143); assay: BRET assay measuring G protein activation, agonist activity at human DOR; assay type: cell-based
T2 construct: expressed in transfected cells; host or cells: HEK-293T
T2 sequence (P41143 whole entry): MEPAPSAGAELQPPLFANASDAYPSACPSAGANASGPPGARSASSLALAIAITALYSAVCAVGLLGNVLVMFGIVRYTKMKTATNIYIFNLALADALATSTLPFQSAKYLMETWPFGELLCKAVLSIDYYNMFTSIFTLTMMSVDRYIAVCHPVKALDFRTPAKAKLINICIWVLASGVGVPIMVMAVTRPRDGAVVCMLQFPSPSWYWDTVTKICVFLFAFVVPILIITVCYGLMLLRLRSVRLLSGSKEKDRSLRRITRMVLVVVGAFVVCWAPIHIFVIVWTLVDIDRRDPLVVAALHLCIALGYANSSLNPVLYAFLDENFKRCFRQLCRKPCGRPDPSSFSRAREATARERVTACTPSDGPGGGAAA
Procedure: The diarylthiazepinamine esters (6) and carboxylic acids (7) were tested for agonist activity at the human mu-opioid receptor (MOR) and delta-opioid receptor (DOR) using bioluminescence resonance energy transfer (BRET) assays measuring G protein activation as previously described (Table 1) (Rives, M.-L. et al. 2012; Negri, A. et al. 2013).
Human MOR or DOR cDNA was transfected alongside GαoB with RLuc8 inserted at position 91 (GαoB—RLuc8), Gβ1 (β1), and Gγ2 fused to the full-length mVenus at its N terminus (mVenus-γ2) into HEK-293T cells (5×10^6 cells/plate) in 10-cm dishes using PEI (Polysciences Inc.; Warrington, Pa.) in a 1:1 ratio diluted in Opti-MEM (Life Technologies Corp.; Grand Island, N.Y.) to assay for G protein activation as described previously (Rives, M.-L. et al. 2012; Negri, A. et al. 2013). Cells were maintained in Dulbecco's Modified Eagle Medium (high glucose #11965; Life Technologies) supplemented with 10% FBS (Premium Select, Atlanta Biologicals; Atlanta, Ga.) and 100 U/mL penicillin and 100 μg/mL streptomycin (#15140, Life Technologies). After 24 hours the media was changed, and the experiment was performed 24 hours later (48 hours after transfection).
Transfected cells were dissociated and re-suspended in phosphate-buffered saline (PBS). Approximately 200,000 cells/well were added to a black-framed, white well 96-well plate (#60050; Perkin Elmer; Waltham, Mass.). The microplate was centrifuged and the cells were re-suspended in PBS. Then 5 μM of the luciferase substrate coelenterazine H was added to each well for 5 minutes. Following coelenterazine H addition, ligands were added and the BRET signal was measured at 5 minutes on a PHERAstar FS plate reader. Quantification of the BRET signal required calculating the ratio of the light emitted by the energy acceptor, mVenus (510-540 nm), over the light emitted by the energy donor, RLuc8 (485 nm). […] Dose response curves were fit using a three-parameter logistics equation in GraphPad Prism 6.

[3] = Brain pharmacokinetics of tianeptine and its 5-carbon metabolite (7i) in mice
Procedure: Brain samples were collected from three mice at 0.08, 0.25, 0.5, 1, 2, 4, 8 and 24 h, homogenized using ice-cold phosphate buffer saline (pH 7.4), and stored below −70° C. until analysis. Total homogenate volume was three times the tissue weight. All samples were processed for analysis by protein precipitation using acetonitrile (ACN) and analyzed with a fit-for-purpose LC/MS/MS method (LLOQ—1.01 ng/mL in brain). Pharmacokinetic parameters were calculated using the non-compartmental analysis tool of Phoenix WinNonlin® (Version 6.3).

[4] = brain, C57BL/6 mice, single injection (30 mg/kg, i.p.) of tianeptine
[5] = brain, mice, after tianeptine 30 mg/kg i.p.
[6] = male, C57BL/6, mouse, in vivo, ip, 30 mg/kg

| Structure (SMILES) | EC50 [1] [µM] | EC50 [2] [µM] | also measured |
| --- | --- | --- | --- |
| CCOC(=O)CCNC1c2ccccc2N(C)S(=O)(=O)c2cc(Br)ccc21 (stereo not shown) [Compound 6a, Ethyl 3-((3-bromo-6-methyl-5,5-dioxido-6,11l-dihydrodibenzo[c,f][1,2]thiazepin-11-yl)amino)propanoate] | 5.9 ± 1 | > 10 |  |
| CCOC(=O)CCNC1c2ccccc2N(C)S(=O)(=O)c2cc(I)ccc21 (stereo not shown) [Compound 6b, Ethyl 3-((3-iodo-6-methyl-5,5-dioxido-6,11-dihydrodibenzo[c,f][1,2]thiazepin-11-yl)amino)propanoate] | 1.6 ± 0.2 | > 10 |  |
| CCOC(=O)CCCNC1c2ccccc2N(C)S(=O)(=O)c2cc(Br)ccc21 (stereo not shown) [Compound 6c, Ethyl 4-((3-bromo-6-methyl-5,5-dioxido-6,11-dihydrodibenzo[c,f][1,2]thiazepin-11-yl)amino)butanoate] | 0.27 ± 0.038 | > 10 |  |
| CCOC(=O)CCCCNC1c2ccccc2N(C)S(=O)(=O)c2cc(Br)ccc21 (stereo not shown) [Compound 6d, Ethyl 5-((3-bromo-6-methyl-5,5-dioxido-6,11-dihydrodibenzo[c,f][1,2]thiazepin-11-yl)amino)pentanoate] | 0.12 |  |  |
| CCOC(=O)CCCCNC1c2ccccc2N(C)S(=O)(=O)c2cc(I)ccc21 (stereo not shown) [Compound 6e, Ethyl 5-((3-iodo-6-methyl-5,5-dioxido-6,11-dihydrodibenzo[c,f][1,2]thiazepin-11-yl)amino)pentanoate] | 0.0282 ± 0.0032 | 6.8 ± 0.03 |  |
| CCOC(=O)CCCCCNC1c2ccccc2N(C)S(=O)(=O)c2cc(Br)ccc21 (stereo not shown) [Compound 6f, Ethyl 6-((3-bromo-6-methyl-5,5-dioxido-6,11-dihydrodibenzo[c,f][1,2]thiazepin-11-yl)amino)hexanoate] | 0.0908 ± 0.0314 | 11.7 ± 0.06 |  |
| CCOC(=O)CCCCCNC1c2ccccc2N(C)S(=O)(=O)c2cc(I)ccc21 (stereo not shown) [Compound 6g, Ethyl 6-((3-iodo-6-methyl-5,5-dioxido-6,11l-dihydrodibenzo[c,f][1,2]thiazepin-11-yl)amino)hexanoate] | 0.0485 ± 0.0049 | 8.5 ± 6.3 |  |
| CCOC(=O)CCCCNC1c2ccccc2N(C)S(=O)(=O)c2cc(Cl)ccc21 (stereo not shown) [Compound 6i, Ethyl 5-((3-chloro-6-methyl-5,5-dioxido-6,11-dihydrodibenzo[c,f][1,2]thiazepin-11-yl)amino)pentanoate] | 0.533 ± 0.267 | > 10 |  |
| CCOC(=O)CCCCCNC1c2ccccc2N(C)S(=O)(=O)c2cc(Cl)ccc21 (stereo not shown) [Compound 6j, Ethyl 6-((3-chloro-6-methyl-5,5-dioxido-6,11-dihydrodibenzo[c,f][1,2]thiazepin-11-yl)amino)hexanoate] | 0.318 ± 0.162 | 13.9 ± 4.8 |  |
| CN1c2ccccc2C(NCCC(=O)O)c2ccc(Br)cc2S1(=O)=O (stereo not shown) [Compound 7a, 3-((3-Bromo-6-methyl-5,5-dioxido-6,1-dihydrodibenzo[c,f][1,2]thiazepin-11-yl)amino)propanoic acid hydrochloride salt] | 4.7 ± 1.4 | > 10 |  |
| CN1c2ccccc2C(NCCC(=O)O)c2ccc(I)cc2S1(=O)=O (stereo not shown) [Compound 7b, 3-((3-Iodo-6-methyl-5,5-dioxido-6,11-dihydrodibenzo[c,f][1,2]thiazepin-11-yl)amino) propanoic acid hydrochloride salt] | 1.2 ± 0.3 | > 10 |  |
| CN1c2ccccc2C(NCCCC(=O)O)c2ccc(Br)cc2S1(=O)=O (stereo not shown) [Compound 7c, 4-((3-Bromo-6-methyl-5,5-dioxido-6,11-dihydrodibenzo[c,f][1,2]thiazepin-11-yl)amino)butanoic acid hydrochloride salt] | 2 ± 0.3 | > 10 |  |
| CN1c2ccccc2C(NCCCCC(=O)O)c2ccc(Br)cc2S1(=O)=O (stereo not shown) [Compound 7d, 5-((3-Bromo-6-methyl-5,5-dioxido-6,11-dihydrodibenzo[c,f][1,2]thiazepin-11-yl)amino)pentanoic acid hydrochloride salt] | 0.405 | > 10 |  |
| CN1c2ccccc2C(NCCCCC(=O)O)c2ccc(I)cc2S1(=O)=O (stereo not shown) [Compound 7e, 5-((3-Iodo-6-methyl-5,5-dioxido-6,11-dihydrodibenzo[c,f][1,2]thiazepin-11-yl)amino)pentanoic acid hydrochloride salt] | 0.0183 ± 0.0002 | 8.9 ± 0.007 |  |
| CN1c2ccccc2C(NCCCCCC(=O)O)c2ccc(Br)cc2S1(=O)=O (stereo not shown) [Compound 7f, 6-((3-Bromo-6-methyl-5,5-dioxido-6,11-dihydrodibenzo[c,f][1,2]thiazepin-11-yl)amino)hexanoic acid hydrochloride salt] | 0.133 ± 0.0132 | 23.7 ± 1.5 |  |
| CN1c2ccccc2C(NCCCCCC(=O)O)c2ccc(I)cc2S1(=O)=O (stereo not shown) [Compound 7g, 6-((3-Iodo-6-methyl-5,5-dioxido-6,11-dihydrodibenzo[c,f][1,2]thiazepin-11-yl)amino)hexanoic acid hydrochloride salt] | 0.0243 ± 0.0045 | 5.1 ± 1.4 |  |
| CN1c2ccccc2C(NCCC(=O)O)c2ccc(Cl)cc2S1(=O)=O (stereo not shown) [Compound 7h, 3-((3-Chloro-6-methyl-5,5-dioxido-6,11-dihydrodibenzo[c,f][1,2]thiazepin-11-yl)amino)propanoic acid hydrochloride salt] | 24.9 ± 12.6 | > 10 |  |
| CN1c2ccccc2C(NCCCCC(=O)O)c2ccc(Cl)cc2S1(=O)=O.Cl (stereo not shown) [Compound 7i, 5-((3-Chloro-6-methyl-5,5-dioxido-6,11-dihydrodibenzo[c,f][1,2]thiazepin-11-yl)amino)pentanoic acid hydrochloride salt] | 0.361 ± 0.0929 | > 10 | AUClast [3, 4]: 5963 ng·h/g; CL [3, 4]: 78 mL/min/kg; brain exposure (as measured by AUC) compared to the parent compound (tianeptine) [3, 5]: greater; half-life compared to the parent compound (tianeptine) [3, 5]: significantly longer; Cmax [3, 6]: 2860 ng/g; Tmax [3, 6]: 0.5 h; half-life [3, 6]: 2.33 h |
| CN1c2ccccc2C(NCCCCCCC(=O)O)c2ccc(Cl)cc2S1(=O)=O (stereo not shown) [Tianeptine, tianeptine, reference compound] |  | 37.4 ± 11.2 |  |
